Assays:
receptors of AR type = biological target: T1, receptors of AR type (Homo sapiens, UniProt P10275); experiment: AR transactivation test in PALM (PC3 Androgen receptor Luciferase MMTV) cell line; assay type: cell-based; settings: cross curves against reference agonist methyltrienolone, read-out: Kdapp (apparent dissociation constant)
T1 construct: expressed in transfected cells; host or cells: PALM cells (PC3 stably transfected with PMMTV-neo-Luc and pSG5puro-AR)
T1 sequence (P10275 1-920): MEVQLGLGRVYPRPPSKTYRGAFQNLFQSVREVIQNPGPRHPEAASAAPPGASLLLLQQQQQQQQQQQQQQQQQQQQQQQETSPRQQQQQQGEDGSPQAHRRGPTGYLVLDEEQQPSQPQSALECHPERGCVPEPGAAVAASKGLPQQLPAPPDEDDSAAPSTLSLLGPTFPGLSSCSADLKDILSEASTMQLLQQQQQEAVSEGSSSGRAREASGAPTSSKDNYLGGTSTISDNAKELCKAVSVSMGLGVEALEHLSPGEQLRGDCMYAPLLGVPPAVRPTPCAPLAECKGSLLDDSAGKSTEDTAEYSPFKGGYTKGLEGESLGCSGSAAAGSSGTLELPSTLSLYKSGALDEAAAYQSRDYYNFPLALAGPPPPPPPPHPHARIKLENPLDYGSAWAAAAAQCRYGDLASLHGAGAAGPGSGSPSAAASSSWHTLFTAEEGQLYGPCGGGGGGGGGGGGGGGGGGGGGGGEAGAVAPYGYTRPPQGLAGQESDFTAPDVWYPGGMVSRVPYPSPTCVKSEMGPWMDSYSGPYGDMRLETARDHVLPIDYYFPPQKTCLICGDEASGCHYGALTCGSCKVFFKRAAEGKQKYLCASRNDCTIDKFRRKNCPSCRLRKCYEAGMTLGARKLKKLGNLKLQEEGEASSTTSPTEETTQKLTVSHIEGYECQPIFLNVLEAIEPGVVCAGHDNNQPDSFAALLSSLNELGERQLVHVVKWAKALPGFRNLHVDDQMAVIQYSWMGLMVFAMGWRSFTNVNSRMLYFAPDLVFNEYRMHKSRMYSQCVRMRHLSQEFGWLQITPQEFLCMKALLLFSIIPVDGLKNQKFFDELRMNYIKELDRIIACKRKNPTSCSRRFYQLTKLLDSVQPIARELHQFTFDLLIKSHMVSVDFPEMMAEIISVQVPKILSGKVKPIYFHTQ
Experimental: The compounds according to the invention show inhibitory properties on receptors of AR type. This AR receptor-inhibiting activity is measured in a transactivation test through the KdR (resting), KdA (active) and Kdapp (apparent) dissociation constants according to the method set out in J. Molecular Biology (1965), 12(1), 88-118, Monod J. of et al.
The transactivation test is carried out in the PALM (PC3 Androgen receptor Luciferase MMTV) cell line which is a stable transfectant containing the PMMTV-neo-Luc (reporter gene) and pSG5puro-AR plasmids.
In this study, the affinity of each product for the 2 receptor states (KdR and KdA) is determined, as is an apparent Kd (KdApp). This constant is a result of the 2 Kd, but also depends on the initial equilibrium of the receptor between the active state and the resting state (L0) and on its expression level. It is determined by means of the following formula: 1/KdApp=(L0/(1+L0))×(1/KdR)+(1/(1+L0))×(1/KdA)
To determine these constants, “cross curves” of the test product against a reference agonist, methyltrienolone, are produced in 96-well plates. The test product is used at 10 concentrations and the reference agonist at 7 concentrations, […]

Row | Kd (receptors of AR type) | melting point | SMILES
1 | 50 nM | – | COc1cc(NCc2ccccc2O)ccn1 [Example 5, 2-[(2-Methoxypyridin-4-ylamino)methyl]phenol]
2 | 4 nM | – | Oc1ccccc1CNc1ccnc(Cl)c1 [Example 2, 2-[(2-Chloropyridin-4-ylamino)methyl]phenol]
3 | 20 nM | 137 °C | COc1cc(NCc2ccccc2O)cc(Br)n1 [Example 1, 2-[(2-Bromo-6-methoxypyridin-4-ylamino)methyl]phenol]
4 | 20 nM | – | Oc1ccc(F)cc1CNc1ccnc(Br)c1 [Example 4, 2-[(2-Bromopyridin-4-ylamino)methyl]-4-fluorophenol]

— patent US10202346B2, “Phenol derivatives and the pharmaceutical or cosmetic use thereof” (Galderma Research & Development, priority 2009, dated 2019)
